Assay results as given in EP0603240B1, “SAFENING HERBICIDAL PYRAZOLYLSULFONYLUREAS” (priority 1991, dated 1993).
Where two headings read alike, the source gives them in different places.

Legend:
Type in all cases: in vivo
[1] = test system: barnyardgrass (Echinochloa crusgalli); experiment: Example 8, Procedure II: Herbicide No. 1 + butachlor (No. 9) with antidotes
Protocol: (§1) Containers were filled and compacted with a fumigated silt loam top soil to a depth of about 1.3 cm from the top of the container. A first container was designated as an untreated control, a second container was designated as a herbicide control, and a third container was designated as a herbicide + antidote test container. Each of the containers was seeded with a crop species. A measured amount of herbicide dispersed or dissolved in acetone was applied to a measured quantity of soil. To this same quantity of soil treated with herbicide, there was added a measured amount of antidote dispersed or dissolved in acetone. The quantity of soil treated with the herbicide and antidote was thoroughly mixed to incorporate the herbicide and antidote in the soil uniformly. The seed bed in the third container of soil was covered with the soil treated with the herbicide and antidote and the container was leveled. For each test series, the seed beds of the first and second containers were likewise covered by soil layers. the cover layer of the first container was not treated with herbicide or antidote.
(§2) The containers were then placed on a bench in a greenhouse and sub-irrigated as required for the duration of the test. […] Plant response is measured in terms of percent injury. Antidote efficacy is indicated as the difference in plant injury by the herbicide(s) without the antidote and with the antidote.
(§3) This procedure is the same as Procedure I, but modified in the manner that after incorporation of the chemicals (herbicide and antidote) the containers with the covered seedbed were treated with an initial overhead irrigation equivalent to 0.6 cm rainfall, then subsequently sub-irrigated as required on greenhouse benches.
(§4) In the series of greenhouse tests described below, for routine screening purposes the herbicide/antidote compositions were tested in crop/weed combinations involving corn as the crop and either or both of the weeds barnyardgrass (Echinochloa crusgalli), a monocotyledonous weed, and velvetleaf (Abutilon theophrasti), a dicotyledonous weed. In the tables below, these weeds are indicated by the symbols "BYG" and "VL", respectively.
(§5) In this test, the efficacy of the same five antidotes used in Examples 6 and 7 was investigated in compositions comprising Herbicide No. 1 and as a co-herbicide, butachlor (Herbicide No. 9), active ingredient in MACHETE® herbicide, a leading commercial rice herbicide. The test procedure used in this example was the same as that in Examples 6 and 7.

[2] = test system: velvetleaf (Abutilon theophrasti); experiment: as above
Protocol: as §1, §2, §3, §4, §5

corn [3] = experiment: Example 23, Procedure II: Antidote Nos. 15 and 17-21 against Herbicide No. 1, 13 days after application; details: Zea mays, 312 h, no antidote, 13 days after application; for inhibition at 140 g/ha: Herb. No. 1 0.14 Kg/Ha; for inhibition at 280 g/ha: Herb. No. 1 0.28 Kg/Ha; for inhibition at 560 g/ha: Herb. No. 1 0.56 Kg/Ha; for inhibition at 1120 g/ha: Herb. No. 1 1.12 Kg/Ha
Protocol: as §1, §2, §3
(§6) In other greenhouse tests, using Procedure II described above, the safening efficacy of Antidote Nos. 15 and 17-21 was evaluated against Herbicide No. 1 in corn in the presence of Giant foxtail (Setaria fabergi) and Velvetleaf (Abutilon theophrasti) as representative annual monocotyledonous and dicotyledonous weeds, respectively.
(§7) Test results are shown in Tables 23A and 23B wherein the indicated plant inhibition represents the average of duplicate replications, with observations being made thirteen (13) days after application of the chemicals. Giant foxtail and Velvetleaf are represented by the symbols "GFT" and "VL", respectively. The data in Table 23A show the test results using the antidotes at 2.24 kg/ha, whereas in Table 23B, the antidotal rate was reduced to 0.56 kg/ha.

[4] = test system: Giant foxtail (Setaria fabergi); experiment: as above; details: Setaria, 312 h
Protocol: as §1, §2, §3, §6, §7

[5] = test system: velvetleaf (Abutilon theophrasti); experiment: as above; details: Abutilon theophrasti, 312 h
Protocol: as §1, §2, §3, §6, §7

corn [6] = experiment: Example 2, Procedure II: dichloroacetamide antidotes against Herbicide No. 1; details: Herb. No. 1 0.14 kg/ha, no antidote
Protocol: as §1, §2, §3
In this example, a plurality of dichloroacetamide antidotes were tested for their safening efficacy against Herbicide No. 1 in corn, using Procedure II. In this test the weed was velvetleaf; barnyardgrass was not present in this test.

corn [7] = experiment: Example 22: retest of Example 21 at reduced greenhouse temperatures; details: Table 22
Protocol: as §1, §2, §3
In this example, tests were conducted as in the preceding Examples 18-20, except here the co-herbicidal component was SUTAN® PLUS, a commercial product comprising as the active herbicidal ingredient the compound butylate (Herbicide No. 10) and an antidote […] (Antidote No. 1). Again, the antidotal compounds herein were Nos. 1, 2, 7, 13 and 15. Procedure II was used.
The experiments in this example were designed as a retest of those described in Example 21 in view of the uncharacteristically poor corn safety and weed control, believed to have resulted from unseasonably high temperatures in the greenhouse. Accordingly, temperatures were reduced for these tests.

[8] = Herbicide No.1 0.14 + No.9 2.24 kg/ha, no antidote
[9] = Herbicide No.1 0.14 kg/ha alone
[10] = Herbicide No.1 0.56 + No.9 (butachlor) 2.24 kg/ha, no antidote
[11] = Herbicide No.1 0.56 kg/ha alone
[12] = read-out: % Inhibition Corn, Table 23A
[13] = read-out: % Inhibition Corn, Table 23B

Q: For `COC(=O)c1c(Cl)nn(C)c1S(=O)(=O)NC(=O)Nc1nc(OC)cc(OC)n1` [Herbicide No. 1], which “% Injury BYG” value [1, 8] is on record?
A: 100%

Q: What about the “% Injury BYG” value [1, 9] of the same compound?
A: 55%

Q: And the “% Injury BYG” value [1, 10]?
A: 100%

Q: And the “% Injury BYG” value [1, 11]?
A: 93%

Q: And the “% Injury VL” value [2, 8]?
A: 70%

Q: And the “% Injury VL” value [2, 9]?
A: 70%

Q: And the “% Injury VL” value [2, 10]?
A: 85%

Q: What about the “% Injury VL” value [2, 11] of the same compound?
A: 85%

Q: And the inhibition at 140 g/ha (corn [3]; [12])?
A: 15%

Q: And the inhibition at 280 g/ha (corn [3]; [12])?
A: 25%

Q: What about the inhibition at 560 g/ha (corn [3]; [12]) of the same compound?
A: 50%

Q: What about the inhibition at 1120 g/ha (corn [3]; [12]) of the same compound?
A: 65%

Q: And the inhibition at 140 g/ha (corn [3]; [13])?
A: 10%

Q: And the inhibition at 280 g/ha (corn [3]; [13])?
A: 25%

Q: What about the inhibition at 560 g/ha (corn [3]; [13]) of the same compound?
A: 40%

Q: And the inhibition at 1120 g/ha (corn [3]; [13])?
A: 60%

Q: What about the inhibition at 140 g/ha ([4]; read-out: % Inhibition GFT, Table 23A, Herb. No. 1 0.14 Kg/Ha, no antidote) of the same compound?
A: 25%

Q: And the inhibition at 280 g/ha ([4]; read-out: % Inhibition GFT, Table 23A, Herb. No. 1 0.28 Kg/Ha, no antidote)?
A: 35%

Q: What about the inhibition at 560 g/ha ([4]; read-out: % Inhibition GFT, Table 23A, Herb. No. 1 0.56 Kg/Ha, no antidote) of the same compound?
A: 60%

Q: What about the inhibition at 1120 g/ha ([4]; read-out: % Inhibition GFT, Table 23A, Herb. No. 1 1.12 Kg/Ha, no antidote) of the same compound?
A: 80%

Q: And the inhibition at 140 g/ha ([4]; read-out: % Inhibition GFT, Table 23B, Herb. No. 1 0.14 Kg/Ha, no antidote)?
A: 30%

Q: What about the inhibition at 280 g/ha ([4]; read-out: % Inhibition GFT, Table 23B, Herb. No. 1 0.28 Kg/Ha, no antidote) of the same compound?
A: 30%

Q: And the inhibition at 560 g/ha ([4]; read-out: % Inhibition GFT, Table 23B, Herb. No. 1 0.56 Kg/Ha, no antidote)?
A: 60%

Q: What about the inhibition at 1120 g/ha ([4]; read-out: % Inhibition GFT, Table 23B, Herb. No. 1 1.12 Kg/Ha, no antidote) of the same compound?
A: 70%

Q: And the inhibition at 140 g/ha ([5]; read-out: % Inhibition VL, Table 23A, Herb. No. 1 0.14 Kg/Ha, no antidote)?
A: 90%

Q: What about the inhibition at 280 g/ha ([5]; read-out: % Inhibition VL, Table 23A, Herb. No. 1 0.28 Kg/Ha, no antidote) of the same compound?
A: 90%

Q: And the inhibition at 560 g/ha ([5]; read-out: % Inhibition VL, Table 23A, Herb. No. 1 0.56 Kg/Ha, no antidote)?
A: 95%

Q: And the inhibition at 1120 g/ha ([5]; read-out: % Inhibition VL, Table 23A, Herb. No. 1 1.12 Kg/Ha, no antidote)?
A: 95%

Q: What about the inhibition at 140 g/ha ([5]; read-out: % Inhibition VL, Table 23B, Herb. No. 1 0.14 Kg/Ha, no antidote) of the same compound?
A: 85%

Q: What about the inhibition at 280 g/ha ([5]; read-out: % Inhibition VL, Table 23B, Herb. No. 1 0.28 Kg/Ha, no antidote) of the same compound?
A: 95%

Q: And the inhibition at 560 g/ha ([5]; read-out: % Inhibition VL, Table 23B, Herb. No. 1 0.56 Kg/Ha, no antidote)?
A: 90%

Q: And the inhibition at 1120 g/ha ([5]; read-out: % Inhibition VL, Table 23B, Herb. No. 1 1.12 Kg/Ha, no antidote)?
A: 90%

Q: What about the “% Injury Corn” value (corn [6]) of the same compound?
A: 10%

Q: What about the “% Injury Corn” value (corn [7]; Herbicide No.1 0.56 Kg/ha + SUTAN + 8.96 Kg/ha, no added antidote) of the same compound?
A: 55%

Q: What about the “% Injury Corn” value (corn [7]; Herbicide No.1 0.56 Kg/ha alone) of the same compound?
A: 60%

Q: What about the “% Injury Corn” value (corn [7]; Herbicide No.1 1.12 Kg/ha + SUTAN + 8.96 Kg/ha, no added antidote) of the same compound?
A: 60%

Q: What about the “% Injury Corn” value (corn [7]; Herbicide No.1 1.12 Kg/ha alone) of the same compound?
A: 65%
